Data reported in ChEMBL document CHEMBL6103630, “Discovery of Novel 2,4,5-Trisubstituted Pyrimidine Derivatives as Potent and Selective FGFR Inhibitors against Gatekeeper Mutants for the Treatment of NSCLC” (J Med Chem, 2025).
pIC50: −log10 of the molar value. Active and inactive are the calls of the source. The rule behind the calls is not given here.

Key:
[1] = target: Fibroblast growth factor receptor 4 (Homo sapiens, UniProt P22455); assay: Inhibition of wild type FGFR4 (unknown origin) by caliper mobility shift assay
Fibroblast growth factor receptor 4, sequence (P22455 whole entry): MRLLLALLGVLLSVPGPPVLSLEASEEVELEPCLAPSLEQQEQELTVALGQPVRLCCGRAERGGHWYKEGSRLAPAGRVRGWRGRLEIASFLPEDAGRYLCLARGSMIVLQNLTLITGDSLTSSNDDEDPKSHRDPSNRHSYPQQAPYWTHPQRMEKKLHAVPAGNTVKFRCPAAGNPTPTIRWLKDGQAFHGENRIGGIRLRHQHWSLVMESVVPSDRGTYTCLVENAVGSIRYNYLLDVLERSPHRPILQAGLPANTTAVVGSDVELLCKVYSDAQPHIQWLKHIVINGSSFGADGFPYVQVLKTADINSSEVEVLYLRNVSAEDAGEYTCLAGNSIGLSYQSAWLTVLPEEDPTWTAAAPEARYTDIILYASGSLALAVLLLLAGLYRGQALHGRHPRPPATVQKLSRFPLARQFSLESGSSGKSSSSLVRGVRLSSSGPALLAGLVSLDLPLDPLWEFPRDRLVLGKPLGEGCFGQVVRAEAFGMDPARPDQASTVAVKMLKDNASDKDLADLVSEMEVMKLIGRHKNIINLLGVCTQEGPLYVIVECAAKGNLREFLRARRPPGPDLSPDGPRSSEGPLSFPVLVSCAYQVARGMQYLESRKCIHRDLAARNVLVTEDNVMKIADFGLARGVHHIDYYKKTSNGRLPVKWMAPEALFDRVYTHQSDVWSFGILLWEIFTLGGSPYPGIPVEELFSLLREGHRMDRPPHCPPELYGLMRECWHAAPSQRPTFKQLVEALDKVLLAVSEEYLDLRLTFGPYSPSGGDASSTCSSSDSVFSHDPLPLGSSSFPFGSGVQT

[2] = target: Fibroblast growth factor receptor 2 (Homo sapiens, UniProt P21802, V564I)
Fibroblast growth factor receptor 2 (Homo sapiens, UniProt P21802, V564I), sequence (P21802 22-821 V564I limits assumed): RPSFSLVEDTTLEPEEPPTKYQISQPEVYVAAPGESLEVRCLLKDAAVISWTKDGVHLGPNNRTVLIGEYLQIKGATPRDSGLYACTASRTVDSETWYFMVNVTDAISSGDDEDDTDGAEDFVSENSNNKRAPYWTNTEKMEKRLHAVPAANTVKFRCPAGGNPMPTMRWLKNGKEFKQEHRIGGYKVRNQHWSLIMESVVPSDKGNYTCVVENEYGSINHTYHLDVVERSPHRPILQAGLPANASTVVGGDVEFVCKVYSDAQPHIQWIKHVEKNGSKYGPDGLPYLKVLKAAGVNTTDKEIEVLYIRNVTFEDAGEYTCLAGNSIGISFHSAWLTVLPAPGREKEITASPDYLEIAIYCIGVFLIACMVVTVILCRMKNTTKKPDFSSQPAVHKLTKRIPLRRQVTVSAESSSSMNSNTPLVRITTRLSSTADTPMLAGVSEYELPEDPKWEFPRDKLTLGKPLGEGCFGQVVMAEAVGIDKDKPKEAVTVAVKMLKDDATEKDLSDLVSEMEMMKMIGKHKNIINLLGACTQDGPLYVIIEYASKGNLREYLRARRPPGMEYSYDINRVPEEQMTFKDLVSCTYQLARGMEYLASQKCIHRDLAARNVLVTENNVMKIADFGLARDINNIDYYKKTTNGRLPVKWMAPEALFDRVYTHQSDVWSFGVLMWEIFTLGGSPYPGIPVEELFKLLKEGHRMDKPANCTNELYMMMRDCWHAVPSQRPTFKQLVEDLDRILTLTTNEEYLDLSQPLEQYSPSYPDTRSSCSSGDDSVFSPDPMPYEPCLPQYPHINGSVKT

[3] = Half life in male Sprague-Dawley rat at 10 mg/kg, po by UHPLC-MS/MS analysis; assay type: ADME, organism-based; conditions: in vivo
Mus musculus [4] = assay: In vivo inhibition of AKT phosphorylation in BALB/c nude mouse xenografted with human NCI-H1581 cells assessed as reduction in AKT phosphorylation level in tumor by Western blotting analysis; assay type: functional, organism-based
A549 [5] = assay: Inhibition of DNA replication in human A549 cells incubated for 1 hrs by EdU staining based analysis; assay type: functional, cell-based; conditions: dose 10-40 µM
[6] = AUC(0 to infinity) in male Sprague-Dawley rat at 10 mg/kg, po by UHPLC-MS/MS analysis; assay type: ADME, organism-based; conditions: in vivo
A549 [7] = assay: Inhibition of cell migration in human A549 cells at 10 to 40 nM incubated for 48 hrs by crystal violet staining based transwell assay; assay type: functional; conditions: dose 10-40 nM
[8] = target: Platelet-derived growth factor receptor alpha (Homo sapiens) (UniProt P16234); assay: Inhibition of PDGFRalpha (unknown origin)
Platelet-derived growth factor receptor alpha (Homo sapiens), sequence (P16234 whole entry): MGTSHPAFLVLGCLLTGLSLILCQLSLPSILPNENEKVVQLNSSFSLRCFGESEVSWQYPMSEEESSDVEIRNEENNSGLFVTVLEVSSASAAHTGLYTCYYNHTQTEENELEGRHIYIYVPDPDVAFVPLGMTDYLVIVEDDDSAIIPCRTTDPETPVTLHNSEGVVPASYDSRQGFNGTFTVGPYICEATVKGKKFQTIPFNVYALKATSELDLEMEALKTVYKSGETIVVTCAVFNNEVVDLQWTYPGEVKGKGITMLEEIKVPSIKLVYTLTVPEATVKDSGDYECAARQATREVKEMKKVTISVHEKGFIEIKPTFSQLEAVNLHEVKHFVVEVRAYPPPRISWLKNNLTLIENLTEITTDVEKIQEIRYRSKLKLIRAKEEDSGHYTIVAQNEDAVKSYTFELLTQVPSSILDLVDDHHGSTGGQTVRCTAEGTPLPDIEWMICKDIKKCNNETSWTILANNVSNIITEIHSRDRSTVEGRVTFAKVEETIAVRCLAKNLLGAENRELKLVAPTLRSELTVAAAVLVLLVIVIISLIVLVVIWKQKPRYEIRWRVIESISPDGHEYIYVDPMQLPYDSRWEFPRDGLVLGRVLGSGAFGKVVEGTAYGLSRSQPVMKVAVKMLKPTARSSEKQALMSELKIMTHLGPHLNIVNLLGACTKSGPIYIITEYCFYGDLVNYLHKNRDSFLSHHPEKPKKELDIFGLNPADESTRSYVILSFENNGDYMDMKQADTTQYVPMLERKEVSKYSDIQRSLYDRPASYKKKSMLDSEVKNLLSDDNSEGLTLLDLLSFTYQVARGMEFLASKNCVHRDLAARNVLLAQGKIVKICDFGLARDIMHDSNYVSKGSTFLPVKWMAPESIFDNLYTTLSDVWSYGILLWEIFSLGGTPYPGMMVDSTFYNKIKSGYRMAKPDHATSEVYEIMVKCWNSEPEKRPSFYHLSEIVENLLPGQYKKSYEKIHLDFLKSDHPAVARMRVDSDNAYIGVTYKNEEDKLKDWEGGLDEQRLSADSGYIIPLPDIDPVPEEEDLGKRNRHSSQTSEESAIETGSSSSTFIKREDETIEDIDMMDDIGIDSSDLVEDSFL

NCI-H1581 [9] = assay: Antitumor activity against human NCI-H1581 cells xenografted in BALB/c nude mouse assessed as tumor growth inhibition at 60 mg/kg relative to control; assay type: functional; conditions: read-out: TGI
[10] = target: Fibroblast growth factor receptor 3 (Homo sapiens, UniProt P22607, V555M)
Fibroblast growth factor receptor 3 (Homo sapiens, UniProt P22607, V555M), sequence (P22607 23-806 V555M limits assumed): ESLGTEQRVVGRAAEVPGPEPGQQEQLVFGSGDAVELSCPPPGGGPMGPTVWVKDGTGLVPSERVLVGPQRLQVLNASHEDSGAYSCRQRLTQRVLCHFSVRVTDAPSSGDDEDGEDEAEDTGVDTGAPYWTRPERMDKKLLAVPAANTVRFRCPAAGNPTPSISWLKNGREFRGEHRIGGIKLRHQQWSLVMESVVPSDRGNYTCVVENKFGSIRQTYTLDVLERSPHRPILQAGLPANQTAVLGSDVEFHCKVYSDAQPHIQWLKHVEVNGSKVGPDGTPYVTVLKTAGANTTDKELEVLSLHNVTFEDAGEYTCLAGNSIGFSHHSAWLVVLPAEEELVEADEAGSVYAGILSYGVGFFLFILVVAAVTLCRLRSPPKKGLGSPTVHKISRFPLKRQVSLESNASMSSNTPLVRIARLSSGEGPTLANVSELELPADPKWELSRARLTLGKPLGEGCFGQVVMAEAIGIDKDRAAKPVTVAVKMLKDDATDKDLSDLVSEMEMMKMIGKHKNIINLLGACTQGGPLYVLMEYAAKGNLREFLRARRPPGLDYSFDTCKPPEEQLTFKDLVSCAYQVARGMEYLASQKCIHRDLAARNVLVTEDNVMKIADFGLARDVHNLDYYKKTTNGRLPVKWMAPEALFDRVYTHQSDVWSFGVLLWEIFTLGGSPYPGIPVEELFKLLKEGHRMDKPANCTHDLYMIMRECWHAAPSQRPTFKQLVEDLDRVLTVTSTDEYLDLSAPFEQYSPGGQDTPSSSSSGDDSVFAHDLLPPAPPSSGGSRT

[11] = Toxicity in BALB/c nude mouse xenografted with rat L6 cells harboring FGFR V561M mutant assessed as change in lung weight at 30 to 60 mg/kg and measured daily for 14 days; assay type: organism-based; conditions: in vivo, 336 h, dose 30-60 mg/kg, time 14 day
[12] = target: Vascular endothelial growth factor receptor 2 (Homo sapiens) (UniProt P35968); assay: Inhibition of VEGFR2 (unknown origin)
Vascular endothelial growth factor receptor 2 (Homo sapiens), sequence (P35968 whole entry): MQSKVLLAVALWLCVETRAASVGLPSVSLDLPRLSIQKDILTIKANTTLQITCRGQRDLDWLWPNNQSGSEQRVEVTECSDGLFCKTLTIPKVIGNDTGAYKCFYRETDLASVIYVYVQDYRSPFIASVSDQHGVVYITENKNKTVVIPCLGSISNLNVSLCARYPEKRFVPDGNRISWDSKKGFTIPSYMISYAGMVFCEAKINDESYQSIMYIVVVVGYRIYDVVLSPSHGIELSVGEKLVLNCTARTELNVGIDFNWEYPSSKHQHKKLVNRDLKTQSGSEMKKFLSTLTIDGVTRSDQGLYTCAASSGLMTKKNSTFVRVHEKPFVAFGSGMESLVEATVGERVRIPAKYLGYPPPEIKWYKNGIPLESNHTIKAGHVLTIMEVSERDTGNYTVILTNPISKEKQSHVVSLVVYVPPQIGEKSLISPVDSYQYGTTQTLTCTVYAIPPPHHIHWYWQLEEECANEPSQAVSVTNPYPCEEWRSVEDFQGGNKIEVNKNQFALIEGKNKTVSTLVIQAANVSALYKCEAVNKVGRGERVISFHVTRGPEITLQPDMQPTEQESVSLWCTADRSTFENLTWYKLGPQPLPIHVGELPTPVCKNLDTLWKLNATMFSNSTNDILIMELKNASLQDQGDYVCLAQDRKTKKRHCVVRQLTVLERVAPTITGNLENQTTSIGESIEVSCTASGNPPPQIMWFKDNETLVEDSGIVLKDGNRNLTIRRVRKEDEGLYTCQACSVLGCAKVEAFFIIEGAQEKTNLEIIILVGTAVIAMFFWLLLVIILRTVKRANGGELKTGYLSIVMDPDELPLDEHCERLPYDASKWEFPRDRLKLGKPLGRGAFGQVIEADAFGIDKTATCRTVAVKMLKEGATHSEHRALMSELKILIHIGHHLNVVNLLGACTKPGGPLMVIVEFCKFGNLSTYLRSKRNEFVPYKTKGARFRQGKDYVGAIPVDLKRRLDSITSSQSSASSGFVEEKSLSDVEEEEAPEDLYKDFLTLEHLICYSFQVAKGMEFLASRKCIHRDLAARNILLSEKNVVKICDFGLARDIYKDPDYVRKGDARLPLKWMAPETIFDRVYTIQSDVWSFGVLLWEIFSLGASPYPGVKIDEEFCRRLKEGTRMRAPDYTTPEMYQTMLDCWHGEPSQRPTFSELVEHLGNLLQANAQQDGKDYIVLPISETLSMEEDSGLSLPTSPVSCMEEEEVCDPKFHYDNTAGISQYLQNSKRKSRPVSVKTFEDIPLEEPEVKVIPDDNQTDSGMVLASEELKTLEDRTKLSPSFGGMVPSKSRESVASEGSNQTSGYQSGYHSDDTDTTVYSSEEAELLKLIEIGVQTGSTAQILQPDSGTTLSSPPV

[13] = Toxicity in ICR mouse assessed as change in heart weight at 80 mg/kg, po measured after 7 days; assay type: organism-based; conditions: in vivo, 168 h, time 7 day
L6 = assay: Antitumor activity against rat L6 cells harboring FGFR1 V561M mutant xenografted in BALB/c nude mouse assessed as suppression of tumor cell proliferation at 30 to 60 mg/kg by Ki-67 staining based analysis; assay type: functional, organism-based; conditions: dose 30-60 mg/kg
[14] = AUC(0 to infinity) in male Sprague-Dawley rat at 2 mg/kg, iv by UHPLC-MS/MS analysis; assay type: ADME, organism-based; conditions: in vivo
[15] = Toxicity in ICR mouse assessed as drug tolerance at 80 mg/kg, po measured after 7 days; assay type: organism-based; conditions: in vivo, 168 h, time 7 day
[16] = Toxicity in BALB/c nude mouse xenografted with human NCI-H1581 cells assessed as change in liver weight and measured after 14 days; conditions: 336 h, time 14 day
[17] = Toxicity in ICR mouse assessed as change in spleen weight at 80 mg/kg, po measured after 7 days; assay type: organism-based; conditions: in vivo, 168 h, time 7 day
[18] = target: Fibroblast growth factor receptor 2 (Homo sapiens, UniProt P21802, V564F)
Fibroblast growth factor receptor 2 (Homo sapiens, UniProt P21802, V564F), sequence (P21802 22-821 V564F limits assumed): as the sequence (P21802 22-821 V564I limits assumed) above, with I543F counted along it

[19] = Toxicity in BALB/c nude mouse xenografted with human NCI-H1581 cells assessed as change in heart weight and measured after 14 days; assay type: tissue-based; conditions: 336 h, time 14 day
[20] = Hepatotoxicity in ICR mouse assessed as change in ALT level at 80 mg/kg, po; assay type: toxicity, organism-based; conditions: in vivo
NCI-H1581 [21] = assay: Inhibition of colony formation in human NCI-H1581 cells at 10 nM incubated for 48 hrs by crystal violet staining based assay; assay type: functional, cell-based
[22] = target: Fibroblast growth factor receptor 3 (Homo sapiens, UniProt P22607, V555L); assay: Inhibition of FGFR3 V555L mutant (unknown origin) by caliper mobility shift assay
Fibroblast growth factor receptor 3 (Homo sapiens, UniProt P22607, V555L), sequence (P22607 23-806 V555L limits assumed): as the sequence (P22607 23-806 V555M limits assumed) above, with M533L counted along it

[23] = Toxicity in BALB/c nude mouse xenografted with rat L6 cells harboring FGFR V561M mutant assessed as change in heart weight at 30 to 60 mg/kg and measured daily for 14 days; assay type: organism-based; conditions: in vivo, 336 h, dose 30-60 mg/kg, time 14 day
[24] = Hepatotoxicity in ICR mouse assessed as change in AST level at 80 mg/kg, po; assay type: toxicity, organism-based; conditions: in vivo
[25] = Toxicity in BALB/c nude mouse xenografted with rat L6 cells harboring FGFR V561M mutant assessed as change in liver weight at 30 to 60 mg/kg and measured daily for 14 days; assay type: organism-based; conditions: in vivo, 336 h, dose 30-60 mg/kg, time 14 day
[26] = Toxicity in ICR mouse assessed as change in liver weight at 80 mg/kg, po measured after 7 days; assay type: organism-based; conditions: in vivo, 168 h, time 7 day
NCI-H1581 [27] = assay: Inhibition of cell migration in human NCI-H1581 cells at 10 to 40 nM incubated for 48 hrs by crystal violet staining based transwell assay; assay type: functional; conditions: dose 10-40 nM
NCI-H1581 [28] = assay: Inhibition of AKT (unknown origin) phosphorylation in human NCI-H1581 cells at 10 to 40 nM by Western blotting analysis; assay type: cell-based; conditions: dose 10-40 nM
NCI-H1581 [29] = assay: Antitumor activity against human NCI-H1581 cells xenografted in BALB/c nude mouse assessed as induction of apoptosis in tumor by H and E staining based analysis; assay type: functional, cell-based
[30] = Toxicity in BALB/c nude mouse xenografted with rat L6 cells harboring FGFR V561M mutant assessed as change in body weight at 30 to 60 mg/kg and measured daily; assay type: organism-based; conditions: in vivo, dose 30-60 mg/kg
[31] = Antitumor activity against rat L6 cells harboring FGFR V561M mutant xenografted in BALB/c nude mouse assessed as tumor growth inhibition at 30 mg/kg relative to control; assay type: functional; conditions: read-out: TGI
[32] = Toxicity in BALB/c nude mouse xenografted with human NCI-H1581 cells assessed as change in kidney weight and measured after 14 days; assay type: tissue-based; conditions: 336 h, time 14 day
Mus musculus [33] = assay: In vivo inhibition of FGFR1 signaling pathway in BALB/c nude mouse xenografted with rat L6 cells harboring FGFR1 V561M mutant assessed as suppression of FGFR1 phosphorylation in tumor at 60 mg/kg by Western blotting analysis; assay type: functional, organism-based
[34] = Nephrotoxicity in ICR mouse assessed as change in Cr level at 80 mg/kg, po; assay type: toxicity, organism-based; conditions: in vivo
[35] = Toxicity in BALB/c nude mouse xenografted with human NCI-H1581 cells assessed as change in AST level at 60 mg/kg; assay type: organism-based; conditions: in vivo
[36] = Toxicity in ICR mouse assessed as change in kidney weight at 80 mg/kg, po measured after 7 days; assay type: organism-based; conditions: in vivo, 168 h, time 7 day
NCI-H1581 [37] = assay: Inhibition of AKT (unknown origin) phosphorylation in human NCI-H1581 cells at 40 nM by Western blotting analysis; assay type: cell-based
[38] = Toxicity in BALB/c nude mouse xenografted with human NCI-H1581 cells assessed as change in ALT level at 60 mg/kg; assay type: organism-based; conditions: in vivo
[39] = Toxicity in ICR mouse assessed as change in body weight at 80 mg/kg, po measured after 7 days; assay type: organism-based; conditions: in vivo, 168 h, time 7 day
[40] = AUC(0 to t) in male Sprague-Dawley rat at 2 mg/kg, iv by UHPLC-MS/MS analysis; assay type: ADME, organism-based; conditions: in vivo

pIC50 [1]: 6.31
pIC50 [2]: 7.52
half-life [3]: 5.18 h
AUC(0-inf) [6]: 12900 ng·h/mL
pIC50 [10]: 8.37
AUC(0-inf) [14]: 5400 ng·h/mL
pIC50 [18]: 8.82
pIC50 [22]: 8.66
AUC(0-t) [40]: 1940 ng·h/mL
Compound: C=CC(=O)Nc1ccc(Nc2nc(Nc3ccc(N4C[C@@H](C)N[C@@H](C)C4)c(OC)c3)ncc2Cl)cc1Cl
inhibition (Mus musculus [4]): Active
inhibition (A549 [5]): Dose-dependent-effect
inhibition (A549 [7]): Active
inhibition [8]: Not active; Moderate To Weak Inhibitory Activity Observed
inhibition in vivo at 60 mg/kg (NCI-H1581 [9]): 61%
Activity [11]: Non-toxic
inhibition [12]: Not active; Moderate To Weak Inhibitory Activity Observed
Activity [13]: Non-toxic
Activity (L6): Active
Activity [15]: Non-toxic
Activity [16]: Non-toxic
Activity [17]: Non-toxic
Activity [19]: Non-toxic
Activity [20]: Non-toxic
inhibition (NCI-H1581 [21]): Active; Stronger Inhibition Observed
Activity [23]: Non-toxic
Activity [24]: Non-toxic
Activity [25]: Non-toxic
Activity [26]: Non-toxic
inhibition (NCI-H1581 [27]): Active
inhibition (NCI-H1581 [28]): Active
Activity (NCI-H1581 [29]): Active
Activity [30]: Non-toxic
inhibition in vivo at 30 mg/kg [31]: 48%
Activity [32]: Non-toxic
inhibition (Mus musculus [33]): Active
Activity [34]: Non-toxic
Activity [35]: Non-toxic
Activity [36]: Non-toxic
inhibition (NCI-H1581 [37]): Active; Greater Inhibition Observed Compared To Infigratinib
Activity [38]: Non-toxic
Activity [39]: Non-toxic
